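Tested at 5 concentrations; 48 h exposure; 96-well plates; endpoints linearly interpolated, else capped at highest concentration. GI50: concentration for 50% inhibition of growth. Definition used: TGI = concentration required for complete inhibition of growth.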
How the values were obtained:
Assay in all cases: DTP human tumour cell line panel, 48 h
[1] = tested on: 786-0 renal
[2] = tested on: A498 renal
[3] = tested on: A549 NSCLC
[4] = tested on: ACHN renal
[5] = tested on: CAKI-1 renal
[6] = tested on: COLO 205 colon
[7] = tested on: DU-145 prostate
[8] = tested on: EKVX NSCLC
[9] = tested on: HCC-2998 colon
[10] = tested on: HCT-15 colon
[11] = tested on: HOP-62 NSCLC
[12] = tested on: HOP-92 NSCLC
[13] = tested on: HT29 colon
[14] = tested on: IGROV1 ovarian
[15] = tested on: K-562 leukemia
[16] = tested on: KM12 colon
[17] = tested on: LOX IMVI melanoma
[18] = tested on: M14 melanoma
[19] = tested on: MALME-3M melanoma
[20] = tested on: MDA-MB-231 breast
[21] = tested on: MDA-MB-435
[22] = tested on: NCI-H226 lung
[23] = tested on: NCI/ADR-RES ovarian
[24] = tested on: OVCAR-3 ovarian
[25] = tested on: OVCAR-5 ovarian
[26] = tested on: OVCAR-8 ovarian
[27] = tested on: PC-3 prostate
[28] = tested on: RPMI-8226 leukemia
[29] = tested on: SF-295 CNS
[30] = tested on: SF-539 CNS
[31] = tested on: SK-MEL-2 melanoma
[32] = tested on: SK-MEL-28 melanoma
[33] = tested on: SK-MEL-5 melanoma
[34] = tested on: SK-OV-3 ovarian
[35] = tested on: SN12C renal
[36] = tested on: SNB-19 CNS
[37] = tested on: SNB-75 CNS
[38] = tested on: SR leukemia
[39] = tested on: T-47D breast
[40] = tested on: TK-10 renal
[41] = tested on: U251 CNS
[42] = tested on: UACC-257 melanoma
[43] = tested on: UACC-62 melanoma
[44] = tested on: UO-31 renal

Question: For Cc1ccc2nc(CN(CCN(Cc3nc4ccc(C)cc4[nH]3)Cc3nc4ccc(C)cc4[nH]3)Cc3nc4ccc(C)cc4[nH]3)[nH]c2c1, which GI50 [1] is on record?
Answer: 1750 nM

Question: What about the TGI [1] of the same molecule?
Answer: 3150 nM

Question: What about the GI50 [2] of the same molecule?
Answer: 1710 nM

Question: And the TGI [2]?
Answer: 3140 nM

Question: And the GI50 [3]?
Answer: 1860 nM

Question: And the TGI [3]?
Answer: 3540 nM

Question: And the GI50 [4]?
Answer: 1600 nM

Question: What about the TGI [4] of the same molecule?
Answer: 2940 nM

Question: What about the GI50 [5] of the same molecule?
Answer: 1260 nM

Question: And the TGI [5]?
Answer: 2510 nM

Question: And the GI50 [6]?
Answer: 1700 nM

Question: And the TGI [6]?
Answer: 3150 nM

Question: And the GI50 [7]?
Answer: 1790 nM

Question: And the TGI [7]?
Answer: 3180 nM

Question: And the GI50 [8]?
Answer: 1440 nM

Question: And the TGI [8]?
Answer: 2750 nM

Question: What about the GI50 [9] of the same molecule?
Answer: 1740 nM

Question: And the TGI [9]?
Answer: 3180 nM

Question: What about the GI50 [10] of the same molecule?
Answer: 1620 nM

Question: And the TGI [10]?
Answer: 3010 nM

Question: What about the GI50 [11] of the same molecule?
Answer: 1830 nM

Question: What about the TGI [11] of the same molecule?
Answer: 3240 nM

Question: What about the GI50 [12] of the same molecule?
Answer: 1450 nM

Question: And the TGI [12]?
Answer: 2890 nM

Question: What about the GI50 [13] of the same molecule?
Answer: 1770 nM

Question: And the TGI [13]?
Answer: 3200 nM

Question: What about the GI50 [14] of the same molecule?
Answer: 1820 nM

Question: And the TGI [14]?
Answer: 3350 nM

Question: What about the GI50 [15] of the same molecule?
Answer: 1720 nM

Question: And the TGI [15]?
Answer: 3760 nM

Question: What about the GI50 [16] of the same molecule?
Answer: 1770 nM

Question: What about the TGI [16] of the same molecule?
Answer: 3180 nM

Question: What about the GI50 [17] of the same molecule?
Answer: 1660 nM

Question: And the TGI [17]?
Answer: 3030 nM

Question: What about the GI50 [18] of the same molecule?
Answer: 1650 nM

Question: What about the TGI [18] of the same molecule?
Answer: 3100 nM

Question: What about the GI50 [19] of the same molecule?
Answer: 1470 nM

Question: What about the TGI [19] of the same molecule?
Answer: 2890 nM

Question: What about the GI50 [20] of the same molecule?
Answer: 1880 nM

Question: What about the TGI [20] of the same molecule?
Answer: 3300 nM

Question: What about the GI50 [21] of the same molecule?
Answer: 1620 nM

Question: And the TGI [21]?
Answer: 2980 nM

Question: And the GI50 [22]?
Answer: 1820 nM

Question: And the TGI [22]?
Answer: 3210 nM

Question: And the GI50 [23]?
Answer: 1890 nM

Question: What about the TGI [23] of the same molecule?
Answer: 3360 nM

Question: What about the GI50 [24] of the same molecule?
Answer: 1840 nM

Question: And the TGI [24]?
Answer: 3310 nM

Question: What about the GI50 [25] of the same molecule?
Answer: 1630 nM

Question: And the TGI [25]?
Answer: 3000 nM

Question: And the GI50 [26]?
Answer: 1760 nM

Question: What about the TGI [26] of the same molecule?
Answer: 3220 nM

Question: What about the GI50 [27] of the same molecule?
Answer: 1850 nM

Question: And the TGI [27]?
Answer: 3510 nM

Question: What about the GI50 [28] of the same molecule?
Answer: 1300 nM

Question: What about the TGI [28] of the same molecule?
Answer: 2950 nM

Question: And the GI50 [29]?
Answer: 1550 nM

Question: What about the TGI [29] of the same molecule?
Answer: 2890 nM

Question: What about the GI50 [30] of the same molecule?
Answer: 1770 nM

Question: What about the TGI [30] of the same molecule?
Answer: 3160 nM

Question: And the GI50 [31]?
Answer: 2160 nM

Question: What about the TGI [31] of the same molecule?
Answer: 3850 nM

Question: What about the GI50 [32] of the same molecule?
Answer: 1750 nM

Question: And the TGI [32]?
Answer: 3150 nM

Question: And the GI50 [33]?
Answer: 1690 nM

Question: And the TGI [33]?
Answer: 3060 nM

Question: What about the GI50 [34] of the same molecule?
Answer: 1880 nM

Question: What about the TGI [34] of the same molecule?
Answer: 3350 nM

Question: And the GI50 [35]?
Answer: 1860 nM

Question: And the TGI [35]?
Answer: 3260 nM

Question: What about the GI50 [36] of the same molecule?
Answer: 1700 nM

Question: And the TGI [36]?
Answer: 3070 nM

Question: What about the GI50 [37] of the same molecule?
Answer: 1320 nM

Question: What about the TGI [37] of the same molecule?
Answer: 2600 nM

Question: And the GI50 [38]?
Answer: 1490 nM

Question: What about the TGI [38] of the same molecule?
Answer: 3220 nM

Question: What about the GI50 [39] of the same molecule?
Answer: 1710 nM

Question: What about the TGI [39] of the same molecule?
Answer: 3120 nM

Question: What about the GI50 [40] of the same molecule?
Answer: 1480 nM

Question: And the TGI [40]?
Answer: 2950 nM

Question: And the GI50 [41]?
Answer: 1610 nM

Question: What about the TGI [41] of the same molecule?
Answer: 2970 nM

Question: And the GI50 [42]?
Answer: 1810 nM

Question: What about the TGI [42] of the same molecule?
Answer: 3240 nM

Question: And the GI50 [43]?
Answer: 1720 nM

Question: And the TGI [43]?
Answer: 3100 nM

Question: And the GI50 [44]?
Answer: 1710 nM

Question: What about the TGI [44] of the same molecule?
Answer: 3140 nM
